Experimental findings from US6410706B1, “Nucleic acid encoding chitin-binding receptor kinase” (Korea Research Institute of Bioscience and Biotechnology, priority 1999, dated 2002) are described below.

For this assay, the target named is recombinant chitinase domain of receptor kinase CHRK1 (amino acid residues 1 to 359 of SEQ ID NO: 1) (Nicotiana tabacum, UniProt Q9SWX8). As to the kind of experiment: Fluorescence polarization chitin-binding assay with Scatchard plot analysis. Particulars: excitation 318 nm, emission 373 nm; for binding to the chitinase domain, seen as change in polarization value: fluorescence polarization, thioredoxin control did not increase. Here is the method:
The chitinase activity and the chitin-binding activity of receptor kinase CHRK1 in this invention are analysed using its recombinant chitinase domain. Consequently, the recombinant chitinase domain has a chitin-binding activity and lacks a chitinase activity.
In order to examine the chitinase activity of receptor kinase […], the recombinant chitinase domain corresponding to amino acid residues 1 to 359 of SEQ. ID NO: 1 was purified from E. coli, and its chitinase activity was estimated by fluorescence polarization assay.
As a result of Scratchard plot analysis, dissociation constant (kd) value of MU-chitotriose was estimated to be 800 nM. In case of using MU-chitotriose or MU-chitotetrose probe without fluorophor as a competitor, binding activity between the chitinase domain and MU-chitotriose or MU-chitotetrose conjugated with fluorophor was inhibited by the competitor. Consequently, the initial polarization value was decreased.

Sequence of recombinant chitinase domain of receptor kinase CHRK1 (amino acid residues 1 to 359 of SEQ ID NO: 1) (Q9SWX8 entry or part of it): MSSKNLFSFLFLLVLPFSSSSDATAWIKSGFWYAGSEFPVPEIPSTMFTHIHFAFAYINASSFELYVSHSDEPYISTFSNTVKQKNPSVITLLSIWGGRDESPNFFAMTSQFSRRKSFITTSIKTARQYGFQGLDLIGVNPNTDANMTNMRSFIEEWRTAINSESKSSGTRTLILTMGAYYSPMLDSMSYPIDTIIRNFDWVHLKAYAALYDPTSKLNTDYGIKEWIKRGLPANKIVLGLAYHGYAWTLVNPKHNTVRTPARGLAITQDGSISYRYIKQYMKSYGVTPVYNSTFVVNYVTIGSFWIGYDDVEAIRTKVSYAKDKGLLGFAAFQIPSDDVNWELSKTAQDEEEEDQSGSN

Turning to `CC(=O)N[C@H]1[C@H](Oc2ccc3c(C)cc(=O)oc3c2)O[C@H](CO)[C@@H](O[C@@H]2O[C@H](CO)[C@@H](O[C@@H]3O[C@H](CO)[C@@H](O)[C@H](O)[C@H]3NC(C)=O)[C@H](O)[C@H]2NC(C)=O)[C@@H]1O` [MU-chitotriose], the “binding to the chitinase domain, seen as change in polarization value” is recorded as “increased polarization value”. The Kd (Scratchard plot analysis of fluorescence polarization, chitinase domain purified from E. coli, read-out: dissociation constant (kd)) came to 800 nM.
For the molecule `CC(=O)NC1C(OC2C(CO)OC(OC3C(CO)OC(OC4C(CO)OC(Oc5ccc6c(C)cc(=O)oc6c5)C(NC(C)=O)C4O)C(NC(C)=O)C3O)C(NC(C)=O)C2O)OC(CO)C(O)C1O` (stereo not drawn) [Mu-chitotetrose], the “binding to the chitinase domain, seen as change in polarization value” is “increased polarization value”.
